Measured values taken from ChEMBL document CHEMBL1135272 (Bioorg Med Chem Lett, 2002).
pIC50: −log10 of the molar value.

What was measured:
A549 [1] = experiment: Inhibition of NFkB (transcription factor) activation in A549 human lung carcinoma cell line at 20 uM; type: functional
A549 [2] = experiment: Compound was tested for its ability to inhibit tumor necrosis factor alpha (TNF alpha) induced apoptosis in A549 human lung carcinoma cell line; type: functional, cell-based
A549 [3] = experiment: Compound was tested for its ability to inhibit tumor necrosis factor alpha (TNF alpha) induced apoptosis in A549 human lung carcinoma cell line; NA=Not assayed; type: functional, cell-based
A549 [4] = experiment: Inhibition of NFkB (transcription factor) activation in A549 human lung carcinoma cell line; type: functional, cell-based
A549 [5] = experiment: (§1) Compound was tested for its ability to inhibit tumor necrosis factor alpha (TNF alpha) induced apoptosis in A549 human lung carcinoma cell line at 20 uM concentration; type: functional, cell-based
A549 [6] = experiment: The compound was examined for its ability to block tumor necrosis factor alpha (TNF alpha) induced IL-8 production in A549 human lung carcinoma cell line using an ELISA; type: functional, cell-based
A549 [7] = experiment: The compound was tested for its ability to inhibit tumor necrosis factor alpha (TNF alpha) induced apoptosis in A549 human lung carcinoma cell line; type: functional, cell-based
A549 [8] = experiment: as §1; type: functional

Structure (SMILES) | inhibition at 20 µM (A549 [1]) [%] | pIC50 (A549 [4]) | inhibition at 20 µM (A549 [8]) [%] | other results
CCCOC(=O)C1C2C(=O)CC(c3ccc(OCC)cc32)C1C(=O)OCC[Si](C)(C)C (centres undefined) | 43 | – | – | pIC50 (A549 [2]): 5.00
CCCOC(=O)C1C2C(=O)CC(c3ccc(O)cc32)C1C(=O)OCCC[Si](C)(C)C (centres undefined) | – | 4.40 | – | IC50 (A549 [3]): Not Active
CCCOC(=O)C1C2C(=O)CC(c3ccc(O)cc32)C1C(=O)OCC[Si](C)(C)C (centres undefined) | – | 4.82 | – | pIC50 (A549 [5]): 5.52; pIC50 (A549 [6]): 4.85
C=CCOC(=O)C1C2C(=O)CC(c3ccc(O)cc32)C1C(=O)OCC[Si](C)(C)C (centres undefined) | – | 4.68 | – | pIC50 (A549 [7]): 5.30; pIC50 (A549 [6]): 4.68
C[Si](C)(C)CCOC(=O)C1C2CC(=O)C(c3cc(O)ccc32)C1C(=O)OCCN1CCOCC1 (centres undefined) | 18 | – | 43 | –
C=CCNC(=O)C1C2C(=O)CC(c3ccc(O)cc32)C1C(=O)OCC[Si](C)(C)C (centres undefined) | 19 | – | 18 | –
CCCOC(=O)C1C2C(=O)CC(c3ccc(OCc4ccccn4)cc32)C1C(=O)OCC[Si](C)(C)C (centres undefined) | 31 | – | 47 | –
C=CCOC(=O)NC1C2C(=O)CC(c3ccc(O)cc32)C1C(=O)OCC[Si](C)(C)C (centres undefined) | 34 | – | – | pIC50 (A549 [2]): 4.85
CCCOC(=O)C1C2C(=O)CC(c3ccccc32)C1C(=O)OCC[Si](C)(C)C (centres undefined) | – | 4.35 | 38 | –
C=CCNC(=O)NC1C2C(=O)CC(c3ccc(O)cc32)C1C(=O)OCC[Si](C)(C)C (centres undefined) | 28 | – | 23 | –
CCCOC(=O)C1C2C(=O)CC(c3ccc(OCC(=O)O)cc32)C1C(=O)OCC[Si](C)(C)C (centres undefined) | 3 | – | 13 | –
CCCOC(=O)C1C2C(=O)CC(c3ccc(O)cc32)C1C(=O)OCCC(C)(C)C (centres undefined) | – | 4.39 | – | IC50 (A549 [3]): Not Active
CCCOC(=O)C1C2C(=O)CC(c3ccc(OCCc4ccccn4)cc32)C1C(=O)OCC[Si](C)(C)C (centres undefined) | – | 4.57 | – | pIC50 (A549 [2]): 5.40
C[Si](C)(C)CCOC(=O)C1C2CC(=O)C(c3cc(O)ccc32)C1NC(=O)OCc1ccc(-c2ccccc2)cc1 (centres undefined) | 27 | – | 0 | –
C[Si](C)(C)CCOC(=O)C1C2CC(=O)C(c3cc(O)ccc32)C1NC(=O)NCc1cccnc1 (centres undefined) | 30 | – | 11 | –
C[Si](C)(C)CCOC(=O)C1C2CC(=O)C(c3cc(O)ccc32)C1C(=O)OCc1cccc(F)c1 (centres undefined) | 13 | – | – | pIC50 (A549 [7]): 4.92
